Key:
NecC [1] = target: T1, NecC (Thelonectria discophora, UniProt A0A0S3Q283); experiment: LC-MS of nectrisine formed (NaBH4 reduction, NBD-F label); assay type: biochemical; parameters: full-length cDNA in pET21b, C-terminal His tag, E. coli BL21 (DE3), Ni column; about 62 kDa; conditions: 15 °C, 12.5 h
T1 sequence (A0A0S3Q283 1-558): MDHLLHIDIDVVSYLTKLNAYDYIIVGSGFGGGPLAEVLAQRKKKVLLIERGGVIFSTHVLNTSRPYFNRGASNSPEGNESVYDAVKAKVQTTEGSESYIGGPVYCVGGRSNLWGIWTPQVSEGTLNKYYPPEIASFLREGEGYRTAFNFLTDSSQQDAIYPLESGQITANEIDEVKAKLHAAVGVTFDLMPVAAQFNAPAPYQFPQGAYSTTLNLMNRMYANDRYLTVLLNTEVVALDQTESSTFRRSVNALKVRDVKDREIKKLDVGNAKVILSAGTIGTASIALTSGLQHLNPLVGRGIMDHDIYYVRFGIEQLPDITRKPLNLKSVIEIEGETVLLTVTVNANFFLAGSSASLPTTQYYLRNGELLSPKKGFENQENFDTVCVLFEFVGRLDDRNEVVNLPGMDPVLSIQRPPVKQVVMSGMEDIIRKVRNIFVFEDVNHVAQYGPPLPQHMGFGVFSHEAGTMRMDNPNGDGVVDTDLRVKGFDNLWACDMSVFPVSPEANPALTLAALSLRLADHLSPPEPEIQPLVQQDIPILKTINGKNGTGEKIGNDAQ

NecC [2] = target: T1, NecC; experiment: H2O2 production, ABTS/peroxidase coupled, absorbance at […] nm; assay type: biochemical; parameters: native, purified from mycelium (ammonium sulfate, DEAE); FAD-like flavin; homo-oligomers about 8 mer to 16 mer; conditions: pH 7.0, 30 °C

For `N[C@H](CO)[C@@H](O)[C@H](O)CO` [compound 2, 4-amino-4-deoxyarabinitol], the “LC-MS of nectrisine formed (NaBH4 reduction, NBD-F label)” value (NecC [1]) was “the recombinant NecC had 4-amino-4-deoxyarabinitol oxidase activity” and the “H2O2 production, ABTS/peroxidase coupled, absorbance at 420 nm” value (NecC [2]; 1 mM substrate, O2 as acceptor) was 4-amino-4-deoxyarabinitol was the preferred substrate.

In the case of `OC[C@@H](O)[C@H](O)[C@@H](O)CO` [xylitol], the “H2O2 production, ABTS/peroxidase coupled, absorbance at 420 nm” value (NecC [2]; xylitol in place of 4-amino-4-deoxyarabinitol) is reported as “NecC also exhibited activity against some sugar alcohols”.

Source: publication PMC4718913, “Characterization of a novel oxidase from Thelonectria discophora SANK 18292 involved in nectrisine biosynthesis” (AMB Express, 2016)
